Key:
[1] = Stability of oversaturated CBD blend to crystallization; type: physicochemical; design: key: +: crystallization; −: no crystallization; details: one week at 10 or 22° C.
Description: Vials were prepared with 5 ml of oversaturated blend of CBD with different diluent. The blend was composed of CBD distilled oil (containing 90% CBD and less than 1% bisabolol) or CBD isolate (more than 99% CBD), and natural bisabolol and phytol. The stability of the solution to crystallization in the vial after a week of storage at either 10 or 22° C. is presented in Table 7.

[2] = Crystallization of CBD blends with different diluents after addition of crystal seed; type: physicochemical; design: key to crystallization of CBD: +: crystallization; −: no crystallization; details: for crystallization of CBD: 1% flavor, crystal seed, 22° C., one week; for concentration of CBD stabilized in the composition: at the diluent concentration that prevents crystallization
Description: 5 g of the following different blends were prepared. The blends contained a CBD distillate containing 92% of CBD, a diluent at different concentrations and 1% natural flavor (Girl School cookies from Floraplex—USA). The diluent was phytol, natural bisabolol or a combination of phytol and natural bisabolol. 2 mg of crystal seed were added to the vial to initiate crystallization. The vials were stored at 22° C. The vials were checked after a week to see if there is crystallization.

[3] = 28% diluent in blend, CBD distillate 92% CBD
[4] = 32% diluent in blend, CBD distillate 92% CBD
[5] = 36% diluent in blend, CBD distillate 92% CBD

SMILES	Crystallization ([1]; CBD 90% distilled oil, 5% diluent in blend)	Crystallization ([1]; CBD 90% distilled oil, 10% diluent in blend)	Crystallization ([1]; CBD 90% distilled oil, 20% diluent in blend)	Crystallization ([1]; CBD isolate, 10% diluent in blend)	Crystallization ([1]; CBD isolate, 20% diluent in blend)	crystallization of CBD [2, 3]	crystallization of CBD [2, 4]	crystallization of CBD [2, 5]	concentration of CBD stabilized in the composition [2]	Crystallization ([1]; CBD 90% distilled oil, 15% diluent in blend)	crystallization of CBD ([2]; 40% diluent in blend, CBD distillate 92% CBD)	crystallization of CBD ([2]; 44% diluent in blend, CBD distillate 92% CBD)	concentration of diluent required to prevent crystallization ([2]; upon addition of crystallization seeds, CBD distillate 92% CBD)
CC(C)=CCC[C@](C)(O)C1CC=C(C)CC1 (stereo partly drawn) [Bisabolol, α-(−)-bisabolol]	−	−	−	+	−	+	−	−	up to 65%				
C/C(=C\CO)CCC[C@H](C)CCC[C@H](C)CCCC(C)C [Phytol, phytol]						+	+	+	about 50%	+	+	−	about 44%

Reference: US20220031845A1, “DILUENTS FOR COMPOSITIONS OF CANNABINOIDS AND USES THEREOF” (KANABO RESEARCH LTD., priority 2019, published 2022)
